The source of these data is patent US5922838A, “Cyclic hexapeptide compounds” (Taisho Pharmaceutical Co., Ltd., priority 1995, dated 1999).

The assay relates to colon 26 (mouse colon cancer). In words: Anti-tumor effect on colon 26 (mouse colon cancer), subcutaneous transplant in CDF1 mice. Format: in vivo. Conditions: intravenously from day 3 on for 5 days, tumor volume ratio measured day 8, CDF1 male mice, T/C of not more than 42% judged effective. As for the experimental part: Test Example [Anti-tumor effect on colon 26 (mouse colon cancer)]
A test was carried out according to the procedure disclosed in Cancer Res., 50. 2290~2295 (1990).
Colon 26 tumor tissue subcultured and transplanted on BALB/c female mice was excised from tumor-bearing mice by incision on the 11th day after the transplantation, and after removal of connective tissues it was minced with scissors. Then, 5 ml of Hank's balanced salt solution was added to 1 g of the tumor, followed by homogenization in a Luer-Lok syringe. After filtration through silicone gauze, cell number in the filtrate cell solution was counted by a hemocytometer and adjusted to 1.0 ×10^6 cells/ml. The resulting cell suspension was subcutaneously transplanted to CDF1 male mice (aged 6 weeks, Charles River, Japan Co.) at the right axillary site at a dose of 0.2 ml/mouse to provide test tumor-bearing mice with each group consisting of 8 mice. The day of cell transplantation was designated as "day 0". TI-356 was dissolved into a surfactant (a solution of HCO 60: polyethyleneglycol =2:1), followed by slow addition of physiological saline thereto to prepare test solutions of various concentrations with the ultimate concentration being about 0.5%. The test solutions were intravenously administered from "day 3" on for 5 days.
RA-VII was used as control.
Tumor propagation-inhibiting effect was determined by measuring the principal axis and the conjugate axis of tumor by a vernier caliper on the day following the completion to administer the compound (day 8) and calculating a tumor volume, a tumor volume ratio and T/C (%) according to the following formulae. T/C of not more than 42% was judged to be effective. [formula]

Regarding `COc1ccc(C[C@H]2C(=O)N[C@@H](C)C(=O)N(C)[C@H]3Cc4ccc(cc4)Oc4cc(ccc4OC)C[C@@H](C(=O)N[C@H](C)C(=O)N[C@@H](C)C(=O)N2C)N(C)C3=O)cc1` [RA-VII], the “T/C (%)” value is listed as 55.8% (dose 1.6 mg/kg), 48.0% (dose 3.13 mg/kg) and 49.0% (dose 6.25 mg/kg).

For `COc1ccc(C[C@H]2C(=O)N[C@@H](C)C(=O)N(C)C3Cc4ccc(cc4)Oc4cc(ccc4OCCN(C(C)C)C(C)C)CC(C(=O)N[C@H](C)C(=O)N[C@@H](C)C(=O)N2C)N(C)C3=O)cc1` (stereo partly drawn) [TI-356], the “T/C (%)” value is listed as 42.1% (dose 0.8 mg/kg), 41.5% (dose 1.6 mg/kg) and 34.5% (dose 3.13 mg/kg).
